Assay results reported in PubChem BioAssay AID2060493 (Molecular Pharmacology Branch, DTP, NCI, 2025).

Test system: 616215-338-R-J1-PDC tumor spheroids, viability
Experiment: Anticancer human tumor 616215-338-R-J1-PDC patient-derived colon adenocarcinoma cell line growth inhibition [GQUAD]
Details: spheroids with HUVEC and MSC; for IC50: curve of first compound; for viability, T/C: stronger effect = lower value
Summary of the method: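 Multi-cell-type spheroids of tumor cells with HUVEC and mesenchymal stem cells, treated with drug combinations. Concentrations descend in half-log steps from near clinical Cmax, or from 10 microM where Cmax is unknown; viability read-out.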

[1] = second compound 0.0316 µM, first compound 0.0316 µM
[2] = second compound 0.0316 µM, first compound 0.1 µM
[3] = second compound 0.0316 µM, first compound 0.316 µM
[4] = second compound 0.0316 µM, first compound 1 µM
[5] = second compound 0.0316 µM, first compound 3.16 µM
[6] = second compound 0.0316 µM, first compound 10 µM
[7] = second compound 0.1 µM, first compound 0.0316 µM
[8] = second compound 0.1 µM, first compound 0.1 µM
[9] = second compound 0.1 µM, first compound 0.316 µM
[10] = second compound 0.1 µM, first compound 1 µM
[11] = second compound 0.1 µM, first compound 3.16 µM
[12] = second compound 0.1 µM, first compound 10 µM
[13] = second compound 0.316 µM, first compound 0.0316 µM
[14] = second compound 0.316 µM, first compound 0.1 µM
[15] = second compound 0.316 µM, first compound 0.316 µM
[16] = second compound 0.316 µM, first compound 1 µM
[17] = second compound 0.316 µM, first compound 3.16 µM
[18] = second compound 0.316 µM, first compound 10 µM
[19] = second compound 1 µM, first compound 0.0316 µM
[20] = second compound 1 µM, first compound 0.1 µM
[21] = second compound 1 µM, first compound 0.316 µM
[22] = second compound 1 µM, first compound 1 µM
[23] = second compound 1 µM, first compound 3.16 µM
[24] = second compound 1 µM, first compound 10 µM
[25] = second compound 3.16 µM, first compound 0.0316 µM
[26] = second compound 3.16 µM, first compound 0.1 µM
[27] = second compound 3.16 µM, first compound 0.316 µM
[28] = second compound 3.16 µM, first compound 1 µM
[29] = second compound 3.16 µM, first compound 3.16 µM
[30] = second compound 3.16 µM, first compound 10 µM
[31] = second compound 10 µM, first compound 0.0316 µM
[32] = second compound 10 µM, first compound 0.1 µM
[33] = second compound 10 µM, first compound 0.316 µM
[34] = second compound 10 µM, first compound 1 µM
[35] = second compound 10 µM, first compound 3.16 µM
[36] = second compound 10 µM, first compound 10 µM
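Note: spheroids exposed to agents for 7 days before readout.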
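Throughout, for viability, T/C: percent viability relative to DMSO vehicle control wells taken as 100%.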

CC(C)(O)C1CCC(Nc2ccc3ncc(-c4cccc(C(F)(F)F)c4)n3n2)CC1 (stereo unspecified) + Cc1[nH]c2ccc(F)cc2c1-c1nc2c3cccnc3c3ncccc3c2[nH]1
IC50 (second compound 0.0316 µM): 610 nM
IC50 (second compound 0.1 µM): 596 nM
IC50 (second compound 0.316 µM): 591 nM
IC50 (second compound 1 µM): 644 nM
IC50 (second compound 3.16 µM): 584 nM
IC50 (second compound 10 µM): 566 nM
viability, T/C [1]: 99.1%
viability, T/C [2]: 103%
viability, T/C [3]: 103%
viability, T/C [4]: 11.2%
viability, T/C [5]: 0.5%
viability, T/C [6]: 1.09%
viability, T/C [7]: 93.7%
viability, T/C [8]: 109%
viability, T/C [9]: 94.3%
viability, T/C [10]: 13.8%
viability, T/C [11]: 0.24%
viability, T/C [12]: 2.5%
viability, T/C [13]: 92%
viability, T/C [14]: 97%
viability, T/C [15]: 97.6%
viability, T/C [16]: 11.7%
viability, T/C [17]: 2.23%
viability, T/C [18]: 1.14%
viability, T/C [19]: 97%
viability, T/C [20]: 89.9%
viability, T/C [21]: 91.6%
viability, T/C [22]: 24.3%
viability, T/C [23]: 0.55%
viability, T/C [24]: 1.33%
viability, T/C [25]: 98.8%
viability, T/C [26]: 103%
viability, T/C [27]: 95.2%
viability, T/C [28]: 10.4%
viability, T/C [29]: 0.45%
viability, T/C [30]: 0.48%
viability, T/C [31]: 90.1%
viability, T/C [32]: 94.4%
viability, T/C [33]: 93.2%
viability, T/C [34]: 8.43%
viability, T/C [35]: 0.77%
viability, T/C [36]: 0.56%

Cc1[nH]c2ccccc2c1CCNCc1ccc(/C=C/C(=O)NO)cc1 + Cc1[nH]c2ccc(F)cc2c1-c1nc2c3cccnc3c3ncccc3c2[nH]1
IC50 (second compound 0.0316 µM): 145 nM
IC50 (second compound 0.1 µM): 178 nM
IC50 (second compound 0.316 µM): 162 nM
IC50 (second compound 1 µM): 131 nM
IC50 (second compound 3.16 µM): 132 nM
IC50 (second compound 10 µM): 125 nM
viability, T/C (second compound 0.0316 µM, first compound 0.000999 µM): 110%
viability, T/C (second compound 0.0316 µM, first compound 0.00316 µM): 98.6%
viability, T/C (second compound 0.0316 µM, first compound 0.00999 µM): 95.8%
viability, T/C [1]: 108%
viability, T/C (second compound 0.0316 µM, first compound 0.0999 µM): 67.6%
viability, T/C [3]: 13.2%
viability, T/C (second compound 0.1 µM, first compound 0.000999 µM): 93.6%
viability, T/C (second compound 0.1 µM, first compound 0.00316 µM): 96.6%
viability, T/C (second compound 0.1 µM, first compound 0.00999 µM): 94.4%
viability, T/C [7]: 97%
viability, T/C (second compound 0.1 µM, first compound 0.0999 µM): 89.6%
viability, T/C [9]: 10.9%
viability, T/C (second compound 0.316 µM, first compound 0.000999 µM): 99.5%
viability, T/C (second compound 0.316 µM, first compound 0.00316 µM): 109%
viability, T/C (second compound 0.316 µM, first compound 0.00999 µM): 104%
viability, T/C [13]: 97.9%
viability, T/C (second compound 0.316 µM, first compound 0.0999 µM): 79.8%
viability, T/C [15]: 9.21%
viability, T/C (second compound 1 µM, first compound 0.000999 µM): 102%
viability, T/C (second compound 1 µM, first compound 0.00316 µM): 98.5%
viability, T/C (second compound 1 µM, first compound 0.00999 µM): 93.1%
viability, T/C [19]: 101%
viability, T/C (second compound 1 µM, first compound 0.0999 µM): 62%
viability, T/C [21]: 10.9%
viability, T/C (second compound 3.16 µM, first compound 0.000999 µM): 98%
viability, T/C (second compound 3.16 µM, first compound 0.00316 µM): 92.6%
viability, T/C (second compound 3.16 µM, first compound 0.00999 µM): 100%
viability, T/C [25]: 94%
viability, T/C (second compound 3.16 µM, first compound 0.0999 µM): 62.7%
viability, T/C [27]: 10.8%
viability, T/C (second compound 10 µM, first compound 0.000999 µM): 99.7%
viability, T/C (second compound 10 µM, first compound 0.00316 µM): 99.5%
viability, T/C (second compound 10 µM, first compound 0.00999 µM): 103%
viability, T/C [31]: 95.1%
viability, T/C (second compound 10 µM, first compound 0.0999 µM): 59.9%
viability, T/C [33]: 8.56%

O=C(NO)c1cnc(N2CCN(S(=O)(=O)c3ccc4ccccc4c3)CC2)nc1 + Cc1[nH]c2ccc(F)cc2c1-c1nc2c3cccnc3c3ncccc3c2[nH]1
IC50 (second compound 0.0316 µM): 406 nM
IC50 (second compound 0.1 µM): 343 nM
IC50 (second compound 0.316 µM): 466 nM
IC50 (second compound 1 µM): 369 nM
IC50 (second compound 3.16 µM): 324 nM
IC50 (second compound 10 µM): 422 nM
viability, T/C [1]: 96.2%
viability, T/C [2]: 94%
viability, T/C [3]: 62%
viability, T/C [4]: 6.64%
viability, T/C [5]: 0.1%
viability, T/C [6]: 0.12%
viability, T/C [7]: 98.6%
viability, T/C [8]: 94.8%
viability, T/C [9]: 53.8%
viability, T/C [10]: 1.07%
viability, T/C [11]: 0.04%
viability, T/C [12]: 0.07%
viability, T/C [13]: 117%
viability, T/C [14]: 110%
viability, T/C [15]: 74.5%
viability, T/C [16]: 1.02%
viability, T/C [17]: 0.02%
viability, T/C [18]: 0.05%
viability, T/C [19]: 103%
viability, T/C [20]: 94.6%
viability, T/C [21]: 57.6%
viability, T/C [22]: 4.76%
viability, T/C [23]: 0.03%
viability, T/C [24]: 0.06%
viability, T/C [25]: 104%
viability, T/C [26]: 96.9%
viability, T/C [27]: 51.4%
viability, T/C [28]: 2.81%
viability, T/C [29]: 0.06%
viability, T/C [30]: 0.08%
viability, T/C [31]: 103%
viability, T/C [32]: 94.6%
viability, T/C [33]: 65.7%
viability, T/C [34]: 3.03%
viability, T/C [35]: 0.15%
viability, T/C [36]: 0.63%
